Results taken from patent publication EP4635500A1, “THERAPEUTIC AGENT FOR BACTERIAL INFECTION” (Sumitomo Pharma Co., Ltd., priority 2022, dated 2024).
≈ marks a conversion by molar mass, not a printed value. Like-named read-outs stand apart in the source and are kept apart here.

Experiments:
Assay type in all cases: cell-based
Providencia rettgeri = experiment: MIC, broth microdilution, standard strains and Japanese clinical isolates (Example 5, Table 4); details: ATCCBAA2525; KUB4010 Providencia rettgeri ATCC BAA-2525, OXA-181
Enterobacter hormaechei = experiment: as above; details: ATCCBAA2082; KUB4001 Enterobacter hormaechei ATCC BAA-2082, KPC-2
Enterobacterales = experiment: MIC, broth microdilution, CDC/FDA Antibiotic Resistance Isolate Bank (Example 7, Tables 8, 11, 12)

CC(C)(O/N=C(\C(=O)N[C@@H]1C(=O)N2C(C(=O)[O-])=C(C[N+]3(CCNC(=O)c4ccc(O)c(O)c4Cl)CCCC3)CS[C@H]12)c1csc(N)n1)C(=O)O [Cefiderocol, cefiderocol]
MIC (Providencia rettgeri): 2 µg/mL (≈ 2.66 µM) | MIC (Enterobacter hormaechei): 2 µg/mL (≈ 2.66 µM) | MIC50 (Enterobacterales; 154 strains of Enterobacterales, read-out: MIC50): 0.5 µg/mL (≈ 0.665 µM) | MIC80 (Enterobacterales; 154 strains of Enterobacterales, read-out: MIC80): 1 µg/mL (≈ 1.33 µM) | MIC90 (Enterobacterales; 154 strains of Enterobacterales, read-out: MIC90): 2 µg/mL (≈ 2.66 µM) | MIC (Enterobacterales; Citrobacter freundii, KUB No. 5654, AR Bank # 157, read-out: MIC): 1 µg/mL (≈ 1.33 µM) | MIC (Enterobacterales; Enterobacter cloacae, Enterobacter cloacae KUB No. 5792, AR Bank #448, read-out: MIC): 2 µg/mL (≈ 2.66 µM) | MIC (Enterobacterales; Enterobacter cloacae, Enterobacter cloacae KUB No. 5807, AR Bank #501, read-out: MIC): 1 µg/mL (≈ 1.33 µM) | MIC (Enterobacterales; Enterobacter cloacae, Enterobacter cloacae KUB No. 5808, AR Bank #502, read-out: MIC): 1 µg/mL (≈ 1.33 µM) | MIC (Enterobacterales; Enterobacter cloacae, Enterobacter cloacae complex, KUB No. 5661, AR Bank # 164, read-out: MIC): 0.5 µg/mL (≈ 0.665 µM) | MIC (Enterobacterales; Enterobacter cloacae, Enterobacter cloacae group, KUB No. 5629, AR Bank # 132, read-out: MIC): 0.5 µg/mL (≈ 0.665 µM) | MIC (Enterobacterales; Enterobacter cloacae, KUB No. 5535, AR Bank# 38, read-out: MIC): 0.5 µg/mL (≈ 0.665 µM) | MIC (Enterobacterales; Enterobacter cloacae, KUB No. 5547, AR Bank# 50, read-out: MIC): 2 µg/mL (≈ 2.66 µM) | MIC (Enterobacterales; Enterobacter cloacae, KUB No. 5550, AR Bank# 53, read-out: MIC): 0.12 µg/mL (≈ 0.16 µM) | MIC (Enterobacterales; Enterobacter cloacae, KUB No. 5557, AR Bank# 60, read-out: MIC): 4 µg/mL (≈ 5.32 µM) | MIC (Enterobacterales; Enterobacter cloacae, KUB No. 5562, AR Bank # 65, read-out: MIC): 0.25 µg/mL (≈ 0.332 µM) | MIC (Enterobacterales; Enterobacter cloacae, KUB No. 5569, AR Bank # 72, read-out: MIC): 0.25 µg/mL (≈ 0.332 µM) | MIC (Enterobacterales; Enterobacter cloacae, KUB No. 5570, AR Bank # 73, read-out: MIC): 0.25 µg/mL (≈ 0.332 µM) | MIC (Enterobacterales; Enterobacter cloacae, KUB No. 5590, AR Bank # 93, read-out: MIC): 0.25 µg/mL (≈ 0.332 µM) | MIC (Enterobacterales; Enterobacter cloacae, KUB No. 5660, AR Bank # 163, read-out: MIC): 0.25 µg/mL (≈ 0.332 µM) | MIC (Enterobacterales; Enterobacter cloacae, KUB No. 5761, AR Bank # 365, read-out: MIC): 0.25 µg/mL (≈ 0.332 µM) | MIC (Enterobacterales; Enterobacter cloacae, KUB No. 5762, AR Bank # 366, read-out: MIC): 0.25 µg/mL (≈ 0.332 µM) | MIC (Enterobacterales; Enterobacter cloacae, KUB No. 5763, AR Bank # 367, read-out: MIC): 1 µg/mL (≈ 1.33 µM) | MIC (Enterobacterales; Enterobacter cloacae, KUB No. 5778, AR Bank # 432, read-out: MIC): 4 µg/mL (≈ 5.32 µM) | MIC (Enterobacterales; Enterobacter cloaccae, KUB No. 5651, AR Bank # 154, read-out: MIC): 4 µg/mL (≈ 5.32 µM) | MIC (Enterobacterales; Enterobacter clooreae, KUB No. 5633, AR Bank # 136, read-out: MIC): 0.25 µg/mL (≈ 0.332 µM) | MIC (Enterobacterales; Escherichia coli, Escherichia coli KUB No. 5783, AR Bank #437, read-out: MIC): 0.25 µg/mL (≈ 0.332 µM) | MIC (Enterobacterales; Escherichia coli, Escherichia coli KUB No. 5794, AR Bank #450, read-out: MIC): 0.25 µg/mL (≈ 0.332 µM) | MIC (Enterobacterales; Escherichia coli, Escherichia coli KUB No. 5795, AR Bank #451, read-out: MIC): 0.5 µg/mL (≈ 0.665 µM) | MIC (Enterobacterales; Escherichia coli, Escherichia coli KUB No. 5796, AR Bank #452, read-out: MIC): 1 µg/mL (≈ 1.33 µM) | MIC (Enterobacterales; Escherichia coli, Escherichia coli KUB No. 5803, AR Bank #861, read-out: MIC): 2 µg/mL (≈ 2.66 µM) | MIC (Enterobacterales; Escherichia coli, KUB No. 5558, AR Bank # 61, read-out: MIC): ≤ 0.06 µg/mL | MIC (Enterobacterales; Escherichia coli, KUB No. 5564, AR Bank # 67, read-out: MIC): 0.12 µg/mL (≈ 0.16 µM) | MIC (Enterobacterales; Escherichia coli, KUB No. 5566, AR Bank # 69, read-out: MIC): 1 µg/mL (≈ 1.33 µM) | MIC (Enterobacterales; Escherichia coli, KUB No. 5574, AR Bank # 77, read-out: MIC): ≤ 0.06 µg/mL | MIC (Enterobacterales; Escherichia coli, KUB No. 5578, AR Bank # 81, read-out: MIC): 0.25 µg/mL (≈ 0.332 µM) | MIC (Enterobacterales; Escherichia coli, KUB No. 5581, AR Bank # 84, read-out: MIC): 0.5 µg/mL (≈ 0.665 µM) | MIC (Enterobacterales; Escherichia coli, KUB No. 5582, AR Bank # 85, read-out: MIC): 0.12 µg/mL (≈ 0.16 µM) | MIC (Enterobacterales; Escherichia coli, KUB No. 5583, AR Bank # 86, read-out: MIC): 0.12 µg/mL (≈ 0.16 µM) | MIC (Enterobacterales; Escherichia coli, KUB No. 5586, AR Bank # 89, read-out: MIC): ≤ 0.06 µg/mL | MIC (Enterobacterales; Escherichia coli, KUB No. 5601, AR Bank # 104, read-out: MIC): 1 µg/mL (≈ 1.33 µM) | MIC (Enterobacterales; Escherichia coli, KUB No. 5611, AR Bank # 114, read-out: MIC): 0.25 µg/mL (≈ 0.332 µM) | MIC (Enterobacterales; Escherichia coli, KUB No. 5615, AR Bank # 118, read-out: MIC): 2 µg/mL (≈ 2.66 µM) | MIC (Enterobacterales; Escherichia coli, KUB No. 5616, AR Bank # 119, read-out: MIC): 0.5 µg/mL (≈ 0.665 µM) | MIC (Enterobacterales; Escherichia coli, KUB No. 5625, AR Bank # 128, read-out: MIC): 2 µg/mL (≈ 2.66 µM) | MIC (Enterobacterales; Escherichia coli, KUB No. 5634, AR Bank # 137, read-out: MIC): 2 µg/mL (≈ 2.66 µM) | MIC (Enterobacterales; Escherichia coli, KUB No. 5646, AR Bank # 149, read-out: MIC): 16 µg/mL (≈ 21.3 µM) | MIC (Enterobacterales; Escherichia coli, KUB No. 5647, AR Bank # 150, read-out: MIC): 4 µg/mL (≈ 5.32 µM) | MIC (Enterobacterales; Escherichia coli, KUB No. 5648, AR Bank # 151, read-out: MIC): 4 µg/mL (≈ 5.32 µM) | MIC (Enterobacterales; Escherichia coli, KUB No. 5659, AR Bank # 162, read-out: MIC): 8 µg/mL (≈ 10.6 µM) | MIC (Enterobacterales; Escherichia coli, KUB No. 5764, AR Bank # 368, read-out: MIC): ≤ 0.06 µg/mL | MIC (Enterobacterales; Escherichia coli, KUB No. 5765, AR Bank # 369, read-out: MIC): 0.25 µg/mL (≈ 0.332 µM) | MIC (Enterobacterales; Escherichia coli, KUB No. 5766, AR Bank # 370, read-out: MIC): 0.5 µg/mL (≈ 0.665 µM) | MIC (Enterobacterales; Escherichia coli, KUB No. 5767, AR Bank # 371, read-out: MIC): 0.5 µg/mL (≈ 0.665 µM) | MIC (Enterobacterales; Escherichia coli, KUB No. 5768, AR Bank # 372, read-out: MIC): 1 µg/mL (≈ 1.33 µM) | MIC (Enterobacterales; Escherichia coli, KUB No. 5769, AR Bank # 373, read-out: MIC): ≤ 0.06 µg/mL | MIC (Enterobacterales; Escherichia coli, KUB No. 5770, AR Bank # 374, read-out: MIC): < 0.06 µg/mL | MIC (Enterobacterales; Escherichia coli, KUB No. 5774, AR Bank # 378, read-out: MIC): 0.12 µg/mL (≈ 0.16 µM) | MIC (Enterobacterales; Escherichia coli, KUB No. 5779, AR Bank # 433, read-out: MIC): 0.5 µg/mL (≈ 0.665 µM) | MIC (Enterobacterales; Escherichia coli, KUB No. 5780, AR Bank # 434, read-out: MIC): 0.5 µg/mL (≈ 0.665 µM) | MIC (Enterobacterales; Escherichia coli, KUB No. 5781, AR Bank # 435, read-out: MIC): 4 µg/mL (≈ 5.32 µM) | MIC (Enterobacterales; Escherichia, KUB No. 57, AR Bank # 436 (row cut off)): ≤0.0 µg/mL | MIC (Enterobacterales; Klebsiella aerogenes, Enterobacter aerogenes, KUB No. 5559, AR Bank # 62, read-out: MIC): ≤ 0.06 µg/mL | MIC (Enterobacterales; Klebsiella aerogenes, Enterobacter aerogenes, KUB No. 5571, AR Bank # 74, read-out: MIC): ≤ 0.06 µg/mL | MIC (Enterobacterales; Klebsiella aerogenes, Enterobacter aerogenes, KUB No. 5658, AR Bank # 161, read-out: MIC): 1 µg/mL (≈ 1.33 µM) | MIC (Enterobacterales; Klebsiella aerogenes, Enterobacter aerogenes, KUB No. 5777, AR Bank # 431, read-out: MIC): 1 µg/mL (≈ 1.33 µM) | MIC (Enterobacterales; Klebsiella oxytoca, KUB No. 5568, AR Bank # 71, read-out: MIC): ≤ 0.06 µg/mL | MIC (Enterobacterales; Klebsiella oxytoca, KUB No. 5644, AR Bank # 147, read-out: MIC): 0.12 µg/mL (≈ 0.16 µM) | MIC (Enterobacterales; Klebsiella oxytoca, KUB No. 5771, AR Bank # 375, read-out: MIC): 0.5 µg/mL (≈ 0.665 µM) | MIC (Enterobacterales; Klebsiella oxytoca, KUB No. 5776, AR Bank # 380, read-out: MIC): ≤ 0.06 µg/mL | MIC (Enterobacterales; Klebsiella ozaenae, KUB No. 5593, AR Bank # 96, read-out: MIC): ≤ 0.06 µg/mL | MIC (Enterobacterales; Klebsiella pnemnonine, KUB No. 5758, AR Bank # 362, read-out: MIC): 0.5 µg/mL (≈ 0.665 µM) | MIC (Enterobacterales; Klebsiella pneumoniae, KUB No. 5531, AR Bank# 34, read-out: MIC): 0.25 µg/mL (≈ 0.332 µM) | MIC (Enterobacterales; Klebsiella pneumoniae, KUB No. 5536, AR Bank# 39, read-out: MIC): 0.12 µg/mL (≈ 0.16 µM) | MIC (Enterobacterales; Klebsiella pneumoniae, KUB No. 5537, AR Bank# 40, read-out: MIC): 0.5 µg/mL (≈ 0.665 µM) | MIC (Enterobacterales; Klebsiella pneumoniae, KUB No. 5538, AR Bank# 41, read-out: MIC): 2 µg/mL (≈ 2.66 µM) | MIC (Enterobacterales; Klebsiella pneumoniae, KUB No. 5540, AR Bank# 43, read-out: MIC): 0.25 µg/mL (≈ 0.332 µM) | MIC (Enterobacterales; Klebsiella pneumoniae, KUB No. 5541, AR Bank# 44, read-out: MIC): 0.5 µg/mL (≈ 0.665 µM) | MIC (Enterobacterales; Klebsiella pneumoniae, KUB No. 5543, AR Bank# 46, read-out: MIC): 0.25 µg/mL (≈ 0.332 µM) | MIC (Enterobacterales; Klebsiella pneumoniae, KUB No. 5546, AR Bank# 49, read-out: MIC): 1 µg/mL (≈ 1.33 µM) | MIC (Enterobacterales; Klebsiella pneumoniae, KUB No. 5563, AR Bank # 66, read-out: MIC): 0.5 µg/mL (≈ 0.665 µM) | MIC (Enterobacterales; Klebsiella pneumoniae, KUB No. 5565, AR Bank # 68, read-out: MIC): 2 µg/mL (≈ 2.66 µM) | MIC (Enterobacterales; Klebsiella pneumoniae, KUB No. 5572, AR Bank # 75, read-out: MIC): 0.25 µg/mL (≈ 0.332 µM) | MIC (Enterobacterales; Klebsiella pneumoniae, KUB No. 5573, AR Bank # 76, read-out: MIC): ≤ 0.06 µg/mL | MIC (Enterobacterales; Klebsiella pneumoniae, KUB No. 5576, AR Bank # 79, read-out: MIC): 0.12 µg/mL (≈ 0.16 µM) | MIC (Enterobacterales; Klebsiella pneumoniae, KUB No. 5577, AR Bank # 80, read-out: MIC): 2 µg/mL (≈ 2.66 µM) | MIC (Enterobacterales; Klebsiella pneumoniae, KUB No. 5584, AR Bank # 87, read-out: MIC): 1 µg/mL (≈ 1.33 µM)
